Km data for one molecule are collected here from article PMC9105110, “Changes in Biochemical Properties and Activity of Trypsin-like Protease (Litopenaeus vannamei) Treated by Atmospheric Cold Plasma (ACP)” (Foods, 2022).

The subject of this experiment is T1, trypsin-like protease (trypsin) from Litopenaeus vannamei.
T1 construct: native, purified from hepatopancreas (ammonium sulfate, Q-Sepharose FF); single band about 33 kDa on SDS-PAGE
The experiment is described as follows: absorbance at […] nm, Lineweaver-Burk plot. The settings on record: 20 mM Tris-HCl pH 8.0, 37 °C, 20 min, 0.4-2.4 mM substrate; untreated control (no cold plasma). Format: biochemical, Penaeus vannamei.

`N=C(N)NCCCC(NC(=O)c1ccccc1)C(=O)Nc1ccc([N+](=O)[O-])cc1` (racemic) [BAPNA]: the Km was 4.16 ± 0.01 mM.

As usually defined, the Km is the substrate concentration at which the rate is half of its maximum.
